Columns and labels:
[1] = system: Leishmania donovani; assay: Antileishmanial activity against intracellular amastigote stage of Leishmania donovani MHOM/ET/67/HU3 infected in human THP1 cells assessed as parasite growth measured after 72 hrs by luciferase reporter gene assay; format: functional, cell-based; conditions: MHOM/ET/67/HU3, THP-1, 72 h
[2] = Cytotoxicity against human THP1 cells assessed as reduction in cell growth measured after 72 hrs by MTT assay; format: toxicity, cell-based, THP-1
[3] = Cytotoxicity against human MRC5 cells assessed as reduction in cell growth measured after 72 hrs by MTT assay; format: toxicity, cell-based
[4] = Selectivity index, ratio of EC50 for human MRC5 cells to EC50 for intracellular Leishmania donovani MHOM/ET/67/HU3 amastigotes; format: toxicity, cell-based; conditions: read-out: Ratio EC50

Work on Cc1cccc(Cn2cc(/C=N/NC(N)=S)c3ccccc32)c1 yielded an EC50 [1] of 4.3 µM, an EC50 at 72 h [2] of 32 µM and an EC50 at 72 h [3] of 23 µM. For the same compound, the selectivity ratio [4] was 5.3.

For COc1ccc2ccccc2c1/C=N/N=C(/N)S, the EC50 [1] was > 10 µM, the EC50 at 72 h [2] was 109 µM and the EC50 at 72 h [3] was 126 µM.

With NC(=S)N/N=C/c1c(OCc2ccccc2)ccc2ccccc12 the EC50 [1] was 8.1 µM, the EC50 at 72 h [2] was 39 µM and the EC50 at 72 h [3] was 30 µM. The selectivity ratio [4] was 3.7.

In the case of COCOc1ccc2cc(/C=N/NC(N)=S)ccc2c1, the EC50 [1] is reported as > 10 µM, the EC50 at 72 h [2] is reported as > 200 µM and the EC50 at 72 h [3] is reported as 175 µM.

For COc1ccc(/C=N/NC(N)=S)c2ccccc12, the EC50 [1] was 5 µM, the EC50 at 72 h [2] was 47 µM and the EC50 at 72 h [3] was 42 µM. For the same compound, the selectivity ratio [4] was 8.4.

With Cn1c(/C=N/N=C(/N)S)cc2ccccc21 the EC50 [1] was > 10 µM, the EC50 at 72 h [2] was > 200 µM and the EC50 at 72 h [3] was > 200 µM.

In the case of CN(C)c1ccc(/C=N/N=C(/N)S)c2ccccc12, the EC50 [1] is reported as 6.5 µM, the EC50 at 72 h [2] is reported as > 200 µM and the EC50 at 72 h [3] is reported as > 200 µM. The selectivity ratio [4] was > 30.

Work on NC(=S)N/N=C/c1ccc2ccccc2c1OCc1ccccc1 yielded an EC50 [1] of 2.6 µM, an EC50 at 72 h [2] of 28 µM and an EC50 at 72 h [3] of 25 µM. It also gave a selectivity ratio [4] of 9.7.

For COCOc1c(/C=N/NC(N)=S)ccc2ccccc12, the EC50 [1] was 6.8 µM, the EC50 at 72 h [2] was 56 µM and the EC50 at 72 h [3] was 119 µM. The selectivity ratio [4] was 17.5.

Compound NC(=S)N/N=C/c1cn(CC2CCCCC2)c2ccccc12 has an EC50 [1] of 9 µM, an EC50 at 72 h [2] of 27 µM and an EC50 at 72 h [3] of 26 µM. It also gave a selectivity ratio [4] of 2.8.

With CCOc1ccc(/C=N/NC(N)=S)c2ccccc12 the EC50 [1] was 7.2 µM, the EC50 at 72 h [2] was > 200 µM and the EC50 at 72 h [3] was > 200 µM. The selectivity ratio [4] was > 30.

C[C@@H]1[C@H](O)[C@@H](C)/C=C/C=C/C=C/C=C/C=C/C=C/C=C/[C@H](O[C@@H]2O[C@H](C)[C@@H](O)[C@H](N)[C@@H]2O)C[C@@H]2O[C@](O)(C[C@@H](O)C[C@@H](O)[C@H](O)CC[C@@H](O)C[C@@H](O)CC(=O)O[C@H]1C)C[C@H](O)[C@H]2C(=O)O [AMPHOTERICIN B] showed an EC50 at 72 h [2] of 38 µM and an EC50 at 72 h [3] of 23 µM.

With Cn1ccc2cc(/C=N/NC(N)=S)ccc21 the EC50 [1] was > 10 µM, the EC50 at 72 h [2] was > 200 µM and the EC50 at 72 h [3] was > 200 µM.

Work on NC(=S)N/N=C/c1ccc2cc(OCc3ccccc3)ccc2c1 yielded an EC50 [1] of 1.2 µM, an EC50 at 72 h [2] of 28 µM and an EC50 at 72 h [3] of 27 µM. For the same compound, the selectivity ratio [4] was 22.6.

With CCCCn1cc(/C=N/NC(N)=S)c2cccc(C)c21 the EC50 [1] was 9 µM, the EC50 at 72 h [2] was > 200 µM and the EC50 at 72 h [3] was 31 µM. For the same compound, the selectivity ratio [4] was 3.4.

With COc1ccc2c(OC)ccc(/C=N/NC(N)=S)c2c1 the EC50 [1] was 9 µM, the EC50 at 72 h [2] was > 200 µM and the EC50 at 72 h [3] was > 200 µM. For the same compound, the selectivity ratio [4] was > 20.

For CCCCOc1ccc(/C=N/NC(N)=S)c2ccccc12, the EC50 [1] was 2.1 µM, the EC50 at 72 h [2] was > 200 µM and the EC50 at 72 h [3] was 41 µM. It also gave a selectivity ratio [4] of 19.5.

NC(=S)N/N=C/c1ccc(OCc2ccccc2)c2ccccc12 gave an EC50 [1] of 1.9 µM, an EC50 at 72 h [2] of 27 µM and an EC50 at 72 h [3] of 29 µM. It also gave a selectivity ratio [4] of 15.2.

In the case of NC(=S)N/N=C/c1c2ccccc2cc2ccccc12, the EC50 [1] is reported as 5.3 µM, the EC50 at 72 h [2] is reported as 67 µM and the EC50 at 72 h [3] is reported as 45 µM. For the same compound, the selectivity ratio [4] was 8.5.

In the case of NC(=S)N/N=C/c1cc2ccccc2c2ccccc12, the EC50 [1] is reported as > 10 µM, the EC50 at 72 h [2] is reported as > 200 µM and the EC50 at 72 h [3] is reported as 192 µM.

For COc1ccc2cc(/C=N/NC(N)=S)ccc2c1, the EC50 [1] was 9.3 µM, the EC50 at 72 h [2] was 108 µM and the EC50 at 72 h [3] was > 250 µM. The selectivity ratio [4] was > 20.

With NC(=S)N/N=C/c1cn(Cc2ccccc2)c2ccccc12 the EC50 [1] was > 10 µM, the EC50 at 72 h [2] was 28 µM and the EC50 at 72 h [3] was 175 µM.

With NC(=S)N/N=C/c1ccc(-c2ccc(/C=N/NC(N)=S)cc2)cc1 the EC50 [1] was > 10 µM, the EC50 at 72 h [2] was > 200 µM and the EC50 at 72 h [3] was > 200 µM.

With NC(=S)N/N=C/c1cn(CCCc2ccccc2)c2ccccc12 the EC50 [1] was 4.1 µM, the EC50 at 72 h [2] was 30 µM and the EC50 at 72 h [3] was > 200 µM. The selectivity ratio [4] was > 50.

With Cn1cc(/C=N/NC(N)=S)c2ccccc21 the EC50 [1] was > 10 µM, the EC50 at 72 h [2] was > 200 µM and the EC50 at 72 h [3] was > 200 µM.

In the case of CCCCOc1c(/C=N/NC(N)=S)ccc2ccccc12, the EC50 [1] is reported as 1.4 µM, the EC50 at 72 h [2] is reported as > 200 µM and the EC50 at 72 h [3] is reported as 86 µM. It also gave a selectivity ratio [4] of 61.5.

For NC(=S)N/N=C/c1ccc(F)c2ccccc12, the EC50 [1] was 0.8 µM, the EC50 at 72 h [2] was 39 µM and the EC50 at 72 h [3] was > 200 µM. For the same compound, the selectivity ratio [4] was > 250.

For NC(=S)N/N=C/c1c(OCC2CCCCC2)ccc2ccccc12, the EC50 [1] was > 10 µM, the EC50 at 72 h [2] was 28 µM and the EC50 at 72 h [3] was 33 µM.

NC(=S)N/N=C/c1ccc(OCC2CCCCC2)c2ccccc12 gave an EC50 [1] of 2.2 µM, an EC50 at 72 h [2] of 150 µM and an EC50 at 72 h [3] of 28.9 µM. It also gave a selectivity ratio [4] of 13.1.

In the case of CCOc1ccc2cc(/C=N/NC(N)=S)ccc2c1, the EC50 [1] is reported as 5.4 µM, the EC50 at 72 h [2] is reported as 30 µM and the EC50 at 72 h [3] is reported as > 200 µM. For the same compound, the selectivity ratio [4] was > 40.

CCCCOc1ccc2cc(/C=N/NC(N)=S)ccc2c1 showed an EC50 [1] of 1.27 µM, an EC50 at 72 h [2] of 36 µM and an EC50 at 72 h [3] of 43 µM. The selectivity ratio [4] was 33.2.

Cc1ccc(/C=N/NC(N)=S)c2ccccc12 gave an EC50 [1] of 1.2 µM, an EC50 at 72 h [2] of 32 µM and an EC50 at 72 h [3] of 37 µM. The selectivity ratio [4] was 30.4.

For COCOc1ccc(/C=N/NC(N)=S)c2ccccc12, the EC50 [1] was > 10 µM, the EC50 at 72 h [2] was > 200 µM and the EC50 at 72 h [3] was 126 µM.
